The subject of data set [1] is Bacillus anthracis. Description: Antimicrobial activity against Gram-positive Bacillus anthracis str. Sterne after 16 to 24 hrs by micro-dilution method. It is filed as functional. In general terms: In broth dilution the organism is exposed to a series of concentrations in liquid medium.
Another data set has as its system Bacillus cereus. Description: Antimicrobial activity against Gram-positive Bacillus cereus ATCC 17788 after 16 to 24 hrs by micro-dilution method. It is filed as functional.
In another data set the test system is Bacillus subtilis. Description: Antimicrobial activity against Gram-positive Bacillus subtilis 168 after 16 to 24 hrs by micro-dilution method. Type of data set: functional.
The test system of a further data set is Listeria monocytogenes. Description: Antimicrobial activity against Gram-positive Listeria monocytogenes ATCC 19115 after 16 to 24 hrs by micro-dilution method. It is filed as functional.
In data set [2] the test system is Staphylococcus aureus. Description: Antimicrobial activity against Gram-positive Staphylococcus aureus ATCC 29213 after 16 to 24 hrs by micro-dilution method. It is filed as functional.
In data set [3] the test system is Staphylococcus aureus. In words: Antimicrobial activity against Gram-positive methicillin-resistant Staphylococcus aureus 1 after 16 to 24 hrs by micro-dilution method. It is filed as functional.
Data set [4] deals with Staphylococcus aureus. Description: Antimicrobial activity against Gram-positive methicillin-resistant Staphylococcus aureus 2 after 16 to 24 hrs by micro-dilution method. It is filed as functional.
A further data set has as its system Haemophilus influenzae. In words: Antimicrobial activity against Gram-negative Haemophilus influenzae ATCC 51907 after 16 to 24 hrs by micro-dilution method. Type of data set: functional.
In the next data set the test system is Pseudomonas aeruginosa. Description: Antimicrobial activity against Gram-negative Pseudomonas aeruginosa PAO1 after 16 to 24 hrs by micro-dilution method. Type of data set: functional.
Data set [5] has as its system Mycolicibacterium smegmatis. Description: Antimicrobial activity against Mycobacterium smegmatis MC2-155 after 16 to 24 hrs by micro-dilution method. It is filed as functional. The conditions noted are these: str. MC2 155.
Data set [6] has as its system Bacillus anthracis. In words: Potency index, ratio MIC of tobramycin to MIC of compound for Bacillus anthracis str. Sterne. Type of data set: functional.
For data set [7], the system named is Mycolicibacterium smegmatis. In words: Potency index, ratio MIC of tobramycin to MIC of compound for Mycobacterium smegmatis MC2-155. Type of data set: functional, str. MC2 155.
Data set [8] deals with T1, Aminoglycoside 3'-phosphotransferase (Escherichia coli, UniProt P00551).
T1 sequence (P00551 whole entry): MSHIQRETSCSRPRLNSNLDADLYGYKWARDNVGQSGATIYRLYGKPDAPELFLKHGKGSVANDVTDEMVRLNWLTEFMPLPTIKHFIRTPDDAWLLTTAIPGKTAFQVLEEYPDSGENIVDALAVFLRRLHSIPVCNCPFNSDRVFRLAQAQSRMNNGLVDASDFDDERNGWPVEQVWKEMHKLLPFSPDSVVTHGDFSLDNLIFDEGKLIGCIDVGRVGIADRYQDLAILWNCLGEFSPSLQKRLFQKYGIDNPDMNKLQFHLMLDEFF
In words: Drug metabolism assessed as Escherichia coli APH(3')-Ia-mediated compound modification at 100 uM. Type of data set: ADME.

Data set [9] can be described thus: Drug metabolism assessed as Escherichia coli AAC(3)-IV mediated compound modification at 100 uM. It is filed as ADME.
Data set [10] is described as follows: Drug metabolism assessed as Staphylococcus aureus Bifunctional AAC(6')-1e/APH(2'')-1a mediated compound modification at 100 uM. It is filed as ADME.
Data set [11] is described as follows: Drug metabolism assessed as Mycobacterium tuberculosis Eis mediated compound modification at 100 uM. Type of data set: ADME.

Molecules are shown by their SMILES. ≈ marks a conversion by molar mass, not a printed value.

Results on 2 compounds are retold here after ChEMBL document CHEMBL3751713, “Synthesis and Biological Activity of Mono- and Di-N-acylated Aminoglycosides” (ACS Med Chem Lett, 2015).

As for `NCC[C@H](O)C(=O)NC[C@H]1O[C@H](O[C@H]2[C@H](O)[C@@H](O[C@H]3O[C@H](CO)[C@@H](O)[C@H](N)[C@H]3O)[C@H](N)C[C@@H]2N)[C@H](N)C[C@@H]1O`, the MIC against Bacillus anthracis [1] is 2 mg/L (≈ 3.52 µM); in the data set on Bacillus cereus, over 150 mg/L; in the data set with Bacillus subtilis, over 150 mg/L; with Listeria monocytogenes, over 150 mg/L; in the data set on Staphylococcus aureus [2], 8 mg/L (≈ 14.1 µM); in the data set on Staphylococcus aureus [3], 16 mg/L (≈ 28.1 µM). In addition, the MIC with Staphylococcus aureus [4] was over 128 mg/L; against Haemophilus influenzae, over 150 mg/L; with Pseudomonas aeruginosa, over 150 mg/L; in [5], 8 mg/L (≈ 14.1 µM). Also, the Ratio in the data set with Bacillus anthracis [6] is given as 32; in data set [7], “>=16”. In addition, the Drug metabolism result in [8] was “metabolite_notdetected”; in [9], “metabolite_detected”; in [10], “metabolite_detected”; in data set [11] it was “metabolite_detected”.
In the case of `NCC(=O)NC[C@H]1O[C@H](O[C@H]2[C@H](O)[C@@H](O[C@H]3O[C@H](CO)[C@@H](O)[C@H](N)[C@H]3O)[C@H](N)C[C@@H]2N)[C@H](N)C[C@@H]1O`, the MIC against Bacillus anthracis [1] came to 0.5 mg/L (≈ 0.953 µM); in the data set with Bacillus cereus it was 18.8 mg/L (≈ 35.8 µM); in the data set on Bacillus subtilis, 75 mg/L (≈ 143 µM); with Listeria monocytogenes, 18.8 mg/L (≈ 35.8 µM); in the data set on Staphylococcus aureus [2], 8 mg/L (≈ 15.3 µM); with Staphylococcus aureus [3] it was 4 mg/L (≈ 7.63 µM). Further, the MIC was found to be 128 mg/L (≈ 244 µM) against Staphylococcus aureus [4], 75 mg/L (≈ 143 µM) with Haemophilus influenzae, 18.8 mg/L (≈ 35.8 µM) against Pseudomonas aeruginosa and 4 mg/L (≈ 7.63 µM) in data set [5]. Moreover, the Ratio with Bacillus anthracis [6] was 128; in data set [7], “>=32”. Further, the Drug metabolism result was “metabolite_notdetected” in data set [8], “metabolite_detected” in data set [9], “metabolite_detected” in data set [10] and “metabolite_detected” in [11].
